Test results taken from US20220274947A1, “NOVEL HETEROARYL-TRIAZOLE COMPOUNDS AS PESTICIDES” (Bayer Aktiengesellschaft, priority 2019, published 2022).

What was measured:
Type in all cases: in vivo
[1] = test system: Diabrotica balteata; assay: Diabrotica balteata spray test; conditions: 168 h, wheat seeds, larvae, after 7 days, read-out: activity (efficacy: 100% means all seedlings have grown up like in the untreated, uninfected control); for pest or weed control at 32 µg/disc, 100 g/ha: application rate 100 g/ha (=32 μg/well); for pest or weed control at 160 µg/disc, 500 g/ha: application rate 500 g/ha (=160 μg/well)
How it was run: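 Wheat seedlings, germinated 1 day on agar, were sprayed with compound in acetone/DMF diluted in water containing emulsifier, then infested with 10-20 Diabrotica balteata larvae. After 7 days efficacy in % was scored: 100% means seedlings grew like the untreated, uninfected control; 0% means none grew.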

[2] = test system: Rhipicephalus microplus; assay: Rhipicephalus (Boophilus) microplus in-vitro contact test, larval cattle tick, strain Parkhurst (BOOPMI Cont); conditions: application rate 5 μg/cm^2 (=500 g/ha), tick larvae, after 48 hours, read-out: activity (efficacy: 100% means all larvae are dead or moribund)
How it was run: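 Acetone solutions dried onto glass tube walls (900 ppm giving 5 μg/cm^2); 20-50 pyrethroid-resistant Parkhurst larvae added per tube and held 48 h at 27° C., 85% relative humidity. Efficacy scored by negative geotaxis as % dead or moribund larvae.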

[3] = test system: Rhipicephalus microplus; assay: Rhipicephalus (Boophilus) microplus injection test (BOOPMI Inj); conditions: 168 h, injection into adult engorged female ticks, egg deposition after 7 days, read-out: activity (efficacy: 100% means all eggs are infertile); for pest or weed control at 0.004 mg: application rate 4 μg/tick; for pest or weed control at 0.02 mg: application rate 20 μg/tick
How it was run: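 Five engorged adult female R. microplus ticks injected into the abdomen with 1 μL of compound diluted in DMSO, then kept in a climate chamber. Fertile egg deposition checked after 7 days; eggs without visible fertility held until hatching at about 42 days. Efficacy: 100% = all eggs infertile, 0% = all fertile.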

[4] = test system: Ctenocephalides felis; assay: Ctenocephalides felis oral test (CTECFE Oral); conditions: 48 h, read-out: activity (mortality)
How it was run: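 About 20 unfed adult cat fleas fed through parafilm on cattle blood containing compound (DMSO concentrate diluted in blood to the desired concentration). Blood held at 37 °C, fleas at room temperature. Mortality (%) scored after 2 days.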

[5] = test system: Anopheles funestus strain FUMOZ-R; assay: Anopheles funestus test (ANPHFU surface treatment & contact assay); conditions: exposure 30 minutes, 24 hours after contact, read-out: efficacy (mortality); for mortality at 4 mg/m2: surface concentration 4 mg/m^2, glazed tile; for mortality at 20 mg/m2: surface concentration 20 mg/m^2, glazed tile
Procedure: Anopheles funestus Test (ANPHFU Surface Treatment & Contact Assay) Solvent: Aceton+2000 ppm rapeseed oil methyl ester (RME)
(§1) In order to produce a sufficient, active ingredient containing solution it is necessary to solve the test compound in the solvent-mix (acetone at 2 mg/ml/RME 2000 ppm). This solution is pipetted onto a glazed tile and after evaporation of the acetone, adult mosquitoes of the species Anopheles funestus strain FUMOZ-R (Hunt et al., Med. Vet. Entomol. 2005 September; 19(3): 271-275) are placed onto the dried surface. The exposure time is 30 minutes. Mortality in percent (%) is determined 24 hours after contact of the insects to the treated surface. 100% mortality means that all tested insects are dead, whereas 0% means that no insect died.

[6] = test system: Spodoptera frugiperda; assay: Spodoptera frugiperda spray test; conditions: in Zea mays, 168 h, read-out: activity (mortality)
How it was run: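 Maize leaf sections were sprayed with compound formulated in acetone/DMF and diluted in water containing 1000 ppm emulsifier. Dried leaves were infested with fall armyworm larvae, and percent mortality was scored after 7 days.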

[7] = test system: Rhipicephalus sanguineus; assay: Rhipicephalus sanguineus in-vitro contact test, adult brown dog ticks (RHIPSA Cont); conditions: 48 h, after 48 hours, read-out: activity (efficacy: 100% means all ticks are dead or moribund); for pest or weed control at 1 µg/cm2, 100 g/ha: application rate 1 μg/cm^2 (=100 g/ha); for pest or weed control at 5 µg/cm2, 500 g/ha: application rate 5 μg/cm^2 (=500 g/ha)
How it was run: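 Mortality of adult R. sanguineus was judged 48 h after contact with acetone-applied residues on glass tube walls. Ticks that stayed immotile or moved without coordination when heated to 45–50 °C (max 5 min) counted as dead or moribund.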

[8] = test system: Musca domestica strain WHO—N; assay: Musca domestica test (MUSCDO surface treatment & contact assay); conditions: surface concentration 20 mg/m^2, glazed tile, exposure 30 minutes, 24 hours after contact, read-out: efficacy (mortality)
How it was run: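 Compound dissolved in acetone (2 mg/ml) with 2000 ppm rapeseed oil methyl ester and pipetted onto glazed tile; after acetone evaporation, adult flies exposed to dried surface for 30 minutes. Mortality (%) scored 24 hours after contact.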

[9] = test system: Aedes aegypti strain MONHEIM; assay: Aedes aegypti test (AEDSAE surface treatment & contact assay); conditions: exposure 30 minutes, 24 hours after contact, read-out: efficacy (mortality); for mortality at 20 mg/m2: surface concentration 20 mg/m^2, glazed tile
How it was run: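 Compound dissolved in acetone (2 mg/ml) with 2000 ppm rapeseed oil methyl ester, pipetted onto glazed tile and dried. Adult mosquitoes exposed on the surface for 30 min; percent mortality scored 24 h after contact.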

[10] = test system: Ctenocephalides felis; assay: Ctenocephalides felis in-vitro contact test, adult cat flea (CTECFE Cont); conditions: application rate 5 μg/cm^2 (=500 g/ha), adult cat fleas, after 48 hours, read-out: activity (efficacy: 100% means all fleas are dead or moribund)
How it was run: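 Acetone solutions coated on glass tube inner walls (900 ppm giving 5 μg/cm^2), then 5-10 adult fleas added and held 48 h at room temperature. Fleas unable to escape a 45-50° C. heating plate within 5 min scored dead or moribund; efficacy = % dead/moribund.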

[11] = test system: Myzus persicae; assay: Myzus persicae spray test; conditions: in Brassica rapa, foliar, 120 h; for mortality at 100 g/ha: read-out: activity (mortality), application rate 100 g/ha, spray, Chinese cabbage leaf disks, after 5 days
Procedure: Myzus persicae—Spray Test Solvent: 78.0 parts by weight acetone • 1.5 parts by weight dimethylformamide Emulsifier: alkylarylpolyglycol ether To produce a suitable preparation of active compound, 1 part by weight of active compound is mixed with the stated amount of solvents and is diluted with water, containing an emulsifier concentration of 1000 ppm, to the desired concentration. Further test concentrations are prepared by dilution with emulsifier containing water.
Chinese cabbage (Brassica pekinensis) leaf disks infected with all instars of the green peach aphid (Myzus persicae), are sprayed with a preparation of the active ingredient of the desired concentration.
After 5 days mortality in % is determined. 100% means all aphids have been killed and 0% means none of the aphids have been killed.

[12] = test system: Myzus persicae; assay: Myzus persicae oral test; conditions: 120 h, read-out: activity (mortality)
How it was run: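 Percent mortality was recorded at day 5, where 0% means no aphids killed. Compound prepared from an acetone concentrate diluted in water and combined with IPL41 medium containing sugar was offered to mixed-stage green peach aphids, which sucked it through a parafilm seal.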

[13] = test system: Nezara viridula; assay: Nezara viridula spray test; conditions: in Hordeum vulgare, 96 h, application rate 100 g/ha, barley plants, larvae, after 4 days
How it was run: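 Barley plants infested with N. viridula larvae were sprayed with compound in acetone/DMF diluted with water containing 1000 ppm alkylarylpolyglycol ether emulsifier. Mortality (%) was scored after 4 days; 100% means all bugs killed, 0% none.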

[14] = test system: Culex quinquefasciatus strain P00; assay: Culex quinquefasciatus test (CULXFA surface treatment & contact assay); conditions: surface concentration 20 mg/m^2, glazed tile, exposure 30 minutes, 24 hours after contact, read-out: efficacy (mortality)
Procedure: Culex quinquefasciatus Test (CULXFA Surface Treatment & Contact Assay) Solvent: Aceton+2000 ppm rapeseed oil methyl ester (RME)
as §1, with “2 000” for “2000”, “Culex quinquefasciatus” for “Anopheles funestus”, “P00” for “FUMOZ-R (Hunt et al., Med. Vet. Entomol. 2005 September; 19(3): 271-275)”

C[C@H](NC(=O)c1ccc(Cl)c(C(F)(F)F)c1)c1ncnn1-c1ccc(C#N)cn1 [II-10]
80 to 100%: mortality at 4 mg/m2 [5] | mortality at 20 mg/m2 [5]
100%: pest or weed control at 32 µg/disc, 100 g/ha [1] | pest or weed control at 160 µg/disc, 500 g/ha [1] | pest or weed control at 5 µg/cm2 [2] | pest or weed control at 0.004 mg [3] | pest or weed control at 0.02 mg [3] | mortality at 100 ppm [4] | mortality at 100 g/ha [6] | mortality at 500 g/ha [6] | pest or weed control at 5 µg/cm2, 500 g/ha [7]
80%: pest or weed control at 1 µg/cm2, 100 g/ha [7]

C[C@H](NC(=O)c1cc(Cl)cc(I)c1)c1ncnn1-c1ccc(C#N)cn1 [II-23]
80 to 100%: mortality at 20 mg/m2 [8] | mortality at 20 mg/m2 [9] | mortality at 20 mg/m2 [5]
80%: pest or weed control at 5 µg/cm2 [10]
100%: pest or weed control at 32 µg/disc, 100 g/ha [1] | pest or weed control at 160 µg/disc, 500 g/ha [1] | pest or weed control at 5 µg/cm2 [2] | pest or weed control at 0.004 mg [3] | pest or weed control at 0.02 mg [3] | mortality at 100 g/ha [6] | mortality at 500 g/ha [6]

CC(C)N(C)C(=O)c1ccc(-n2ncnc2[C@H](C)NC(=O)c2cc(Cl)cc(C(F)(F)F)c2)nc1 [II-26]
80 to 100%: mortality at 20 mg/m2 [9] | mortality at 20 mg/m2 [5]
100%: pest or weed control at 5 µg/cm2 [2] | mortality at 500 g/ha ([11]; read-out: activity (mortality), application rate 500 g/ha, spray, Chinese cabbage leaf disks, after 5 days) | pest or weed control at 0.004 mg [3] | pest or weed control at 0.02 mg [3] | mortality at 500 g/ha [6] | pest or weed control at 5 µg/cm2 [10] | pest or weed control at 1 µg/cm2, 100 g/ha [7]
80%: pest or weed control at 5 µg/cm2, 500 g/ha [7]
83%: mortality at 100 g/ha [6]

Cc1nc([C@H](C)NC(=O)c2cccc(C(F)(F)F)n2)n(-c2ccc(C#N)cn2)n1 [II-48]
90%: mortality at 100 ppm [4]
80 to 100%: mortality at 4 mg/m2 ([9]; surface concentration 4 mg/m^2, glazed tile) | mortality at 20 mg/m2 [9] | mortality at 4 mg/m2 [5] | mortality at 20 mg/m2 [5]
100%: pest or weed control at 32 µg/disc, 100 g/ha [1] | pest or weed control at 5 µg/cm2 [2] | pest or weed control at 0.004 mg [3] | pest or weed control at 0.02 mg [3] | pest or weed control at 1 µg/cm2, 100 g/ha [7] | pest or weed control at 5 µg/cm2, 500 g/ha [7]

Cc1nc([C@H](C)NC(=O)c2cc(C(F)(F)F)cc(C(F)(F)F)c2)n(-c2ccc(C(=O)N(C)CC3CC3)cn2)n1 [II-91]
100%: pest or weed control at 32 µg/disc, 100 g/ha [1] | mortality at 0.8 ppm [12] | mortality at 4 ppm [12] | mortality at 100 g/ha [13] | pest or weed control at 5 µg/cm2 [2] | mortality at 100 g/ha [11] | pest or weed control at 0.004 mg [3] | mortality at 100 ppm [4] | mortality at 100 g/ha [6] | pest or weed control at 5 µg/cm2 [10] | pest or weed control at 1 µg/cm2, 100 g/ha [7] | pest or weed control at 5 µg/cm2, 500 g/ha [7]

Cc1nc([C@H](C)NC(=O)c2cc(C(F)(F)F)cc(C(F)(F)F)c2)n(-c2ccc(C(=O)N(C)CC(F)(F)F)cn2)n1 [II-93]
90%: mortality at 100 g/ha [11] | mortality at 100 ppm [4] | pest or weed control at 5 µg/cm2 [10]
100%: pest or weed control at 32 µg/disc, 100 g/ha [1] | mortality at 4 ppm [12] | mortality at 100 g/ha [13] | pest or weed control at 5 µg/cm2 [2] | pest or weed control at 0.004 mg [3] | mortality at 100 g/ha [6] | pest or weed control at 1 µg/cm2, 100 g/ha [7] | pest or weed control at 5 µg/cm2, 500 g/ha [7]

Cc1nc([C@H](C)NC(=O)c2cc(C(F)(F)F)cc(C(F)(F)F)c2)n(-c2ccc(C(=O)N(C)CC(C)C)cn2)n1 [II-94]
100%: pest or weed control at 32 µg/disc, 100 g/ha [1] | mortality at 4 ppm [12] | mortality at 100 g/ha [13] | pest or weed control at 5 µg/cm2 [2] | pest or weed control at 0.004 mg [3] | pest or weed control at 5 µg/cm2 [10] | pest or weed control at 1 µg/cm2, 100 g/ha [7] | pest or weed control at 5 µg/cm2, 500 g/ha [7]
90%: mortality at 100 g/ha [11] | mortality at 100 ppm [4]

Cc1nc([C@H](C)NC(=O)c2cc(F)cc(C#N)c2)n(-c2ccc(C#N)cn2)n1 [II-105]
100%: pest or weed control at 32 µg/disc, 100 g/ha [1] | mortality at 4 ppm [12] | mortality at 100 g/ha [13] | pest or weed control at 5 µg/cm2 [2] | pest or weed control at 0.004 mg [3] | mortality at 100 ppm [4] | mortality at 100 g/ha [6] | pest or weed control at 5 µg/cm2 [10] | pest or weed control at 1 µg/cm2, 100 g/ha [7] | pest or weed control at 5 µg/cm2, 500 g/ha [7]
90%: mortality at 100 g/ha [11]

Cc1nc([C@H](C)NC(=O)c2cc(OC(F)F)cc(C(F)F)c2)n(-c2ccc(C#N)cn2)n1 [II-113]
80%: pest or weed control at 1 µg/cm2, 100 g/ha [7]
100%: pest or weed control at 32 µg/disc, 100 g/ha [1] | mortality at 0.8 ppm [12] | mortality at 4 ppm [12] | mortality at 100 g/ha [13] | pest or weed control at 5 µg/cm2 [2] | pest or weed control at 0.004 mg [3] | mortality at 100 ppm [4] | mortality at 100 g/ha [6] | pest or weed control at 5 µg/cm2 [10] | pest or weed control at 5 µg/cm2, 500 g/ha [7]
90%: mortality at 100 g/ha [11]

C[C@H](NC(=O)c1cc(Cl)cc(OC(F)(F)F)c1)c1ncnn1-c1ncc(OC(F)F)cn1 [II- 30]
80 to 100%: mortality at 20 mg/m2 [14]
